Measurements taken from PubChem BioAssay AID1919005 (Molecular Pharmacology Branch, DTP, NCI, 2023).
Several values for one entry are separate records, joined by “and”; a condition that tells them apart may be missing. Equal values may be shown once.

Test system: 855422-203-R-J1-PDC complex spheroid growth
Assay: Anticancer human tumor 855422-203-R-J1-PDC patient-derived bladder carcinoma cell line growth inhibition [AhR]
Conditions: for viability, T/C: stronger effect = lower value
Excerpt: Multicellular complex tumor spheroid response to aryl hydrocarbon receptor antagonists in combination with a variety of drugs and investigational agents in selected tumor cell lines
The current study was undertaken to assess response to aryl hydrocarbon receptor antagonists in combination with standard-of-care drugs and investigational agents in solid tumor complex spheroid models. Complex spheroids include a stromal component modeled by human endothelial cells (HUVEC) and fibroblasts modeled by human mesenchymal stem cells (MSCs). The concentration ranges selected for each drug and investigational agent were based upon clinically achievable concentrations if the clinical Cmax of the agent was known.
Compounds. The drugs and investigational agents: BAY 2416964 (NSC825713), GNF351 (NSC835774), CH-223191 (NSC835775), CPI-455 (NSC825282), aza-TdCyd (NSC777586), decitabine (NSC127716), belinostat (NSC758774), entinostat (NSC756642), pevonedistat (NSC761192), tazemetostat (NSC777109), talazoparib (NSC765396), olaparib (NSC753686), selinexor (NSC780203), nedisertib (M3814, NSC802822), bortezomib (NSC756655), venetoclax (NSC766270), doxorubicin (NSC123127), elimusertib (BAY189344, NSC800525), ceralasertib (AZD6738, NSC777638), TAK-243 (NSC785004), alisertib (NSC759677), etoposide (NSC141540), topotecan (NSC609699), eribulin (NSC707389), gemcitabine (NSC613327), carboplatin (NSC241240), cisplatin (NSC119875), and SN-38 (NSC673596) were obtained from the National Cancer Institute (NCI) Developmental Therapeutics Program Chemical Repository (32). The FDA-approved anticancer drug set is available from the Developmental Therapeutics Program at https://dtp.cancer.gov/organization/dscb/obtaining/available plates.htm. […] The stock solutions were prepared in dimethyl sulfoxide (DMSO, Sigma-Aldrich, St. Louis, MO, cat. D2650), except for the platinum compounds which were prepared in saline (Quality Biological, Gaithersburg, MD, cat. 114-055-101), at 800-fold the tested concentration and stored at -70 degrees C prior to their use. All drugs and investigational agents were tested over a range starting from a high concentration at or near the clinical Cmax and decreasing in half-log increments. If the clinical Cmax for an agent had not been determined, the highest concentration tested was 10 microM (Table 1).
Cell Culture. All cells were maintained in an incubator at 37 degrees C and 5% CO2 with 95% humidity. The PDC lines were cultured according to standard operating procedures established by the NCI PDMR (https://pdmr.cancer.gov). Briefly, all PDCs were thawed and cultured in Matrigel-coated flasks prepared with a working solution of 1X Ham's F-12 nutrient mix, without supplementation (Invitrogen, Waltham, MA, cat. 11765054), 100 U/mL penicillin-streptomycin (Invitrogen, cat. 15140122), and 2.5% Matrigel (Corning Inc., Corning, NY, cat. 354248) for the first three passages. All PDCs were cultured in complete DMEM/F-12 media containing advanced DMEM/F-12 (Invitrogen, cat. 12634028), 4.9% defined fetal bovine serum, heat inactivated (HyClone Laboratories Inc., Logan, UT, cat. SH30070.03HI), 389 ng/mL hydrocortisone (Sigma-Aldrich, cat. H4001), 9.7 ng/mL human EGF recombinant protein (Invitrogen, cat. PHG0313), 23.4 microg/mL adenine (Sigma-Aldrich, cat. A2786), 97.3 U/mL penicillin-streptomycin (Invitrogen, cat. 15140122), 1.9 mM L-glutamine (Invitrogen, cat. 25030081), and 9.7 microM Y-27632 dihydrochloride (Tocris Bioscience, Bristol, United Kingdom, cat. 1254). The PDCs were cultured in complete DMEM/F12 media without 10 microM Y-27632 dihydrochloride for at least two passages prior to the screen. The established cell lines NCI-H1341 and […] were cultured in DMEM/F-12, HEPES (Invitrogen, cat. 11330032), 5% defined fetal bovine serum (HyClone Laboratories Inc., cat. SH30070.03), ITS premix universal culture supplement [insulin (5 microg/mL), transferrin (5 microg/mL), and selenious acid (5 ng/mL)] […]

[1] = curve of first compound, second compound 0.1 µM
[2] = curve of first compound, second compound 0.316 µM
[3] = curve of first compound, second compound 1 µM
[4] = curve of first compound, second compound 3.16 µM
[5] = curve of first compound, second compound 10 µM
[6] = second compound 0.1 µM, first compound 0.0316 µM
[7] = second compound 0.1 µM, first compound 0.1 µM
[8] = second compound 0.316 µM, first compound 0.0316 µM
[9] = second compound 0.316 µM, first compound 0.1 µM
[10] = second compound 1 µM, first compound 0.0316 µM
[11] = second compound 1 µM, first compound 0.1 µM
[12] = second compound 3.16 µM, first compound 0.0316 µM
[13] = second compound 3.16 µM, first compound 0.1 µM
[14] = second compound 10 µM, first compound 0.0316 µM
[15] = second compound 10 µM, first compound 0.1 µM
[16] = second compound 0.1 µM, first compound 0.316 µM
[17] = second compound 0.1 µM, first compound 1 µM
[18] = second compound 0.1 µM, first compound 3.16 µM
[19] = second compound 0.1 µM, first compound 10 µM
[20] = second compound 0.316 µM, first compound 0.316 µM
[21] = second compound 0.316 µM, first compound 1 µM
[22] = second compound 0.316 µM, first compound 3.16 µM
[23] = second compound 0.316 µM, first compound 10 µM
[24] = second compound 1 µM, first compound 0.316 µM
[25] = second compound 1 µM, first compound 1 µM
[26] = second compound 1 µM, first compound 3.16 µM
[27] = second compound 1 µM, first compound 10 µM
[28] = second compound 3.16 µM, first compound 0.316 µM
[29] = second compound 3.16 µM, first compound 1 µM
[30] = second compound 3.16 µM, first compound 3.16 µM
[31] = second compound 3.16 µM, first compound 10 µM
[32] = second compound 10 µM, first compound 0.316 µM
[33] = second compound 10 µM, first compound 1 µM
[34] = second compound 10 µM, first compound 3.16 µM
[35] = second compound 10 µM, first compound 10 µM
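Also: spheroids exposed to agents for seven days before readout.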
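For viability, T/C in this document: percent of DMSO vehicle control luminescence viability.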

Cn1ncnc1C1c2n[nH]c(=O)c3cc(F)cc(c23)NC1c1ccc(F)cc1 (configuration not stated) + Cc1ccccc1N=Nc1ccc(NC(=O)c2ccnn2C)c(C)c1 was tested, and the IC50 [1] was > 100 nM, the IC50 [2] was > 100 nM and the IC50 [3] was > 100 nM. For the same molecule, the IC50 [4] was > 100 nM, the IC50 [5] was > 100 nM and the viability, T/C (second compound 0.1 µM, first compound 0.000316 µM) was 102%. The viability, T/C (second compound 0.1 µM, first compound 0.001 µM) was 96%, the viability, T/C (second compound 0.1 µM, first compound 0.00316 µM) was 102% and the viability, T/C (second compound 0.1 µM, first compound 0.01 µM) was 100%. For the same molecule, the viability, T/C [6] was 93.8%, the viability, T/C [7] was 100% and the viability, T/C (second compound 0.316 µM, first compound 0.000316 µM) was 106%. It also gave a viability, T/C (second compound 0.316 µM, first compound 0.001 µM) of 96.4%, a viability, T/C (second compound 0.316 µM, first compound 0.00316 µM) of 95.7% and a viability, T/C (second compound 0.316 µM, first compound 0.01 µM) of 96.1%. The viability, T/C [8] was 92.6%, the viability, T/C [9] was 90% and the viability, T/C (second compound 1 µM, first compound 0.000316 µM) was 104%. For the same molecule, the viability, T/C (second compound 1 µM, first compound 0.001 µM) was 105%, the viability, T/C (second compound 1 µM, first compound 0.00316 µM) was 97.7% and the viability, T/C (second compound 1 µM, first compound 0.01 µM) was 103%. The viability, T/C [10] was 98.2%, the viability, T/C [11] was 96.3% and the viability, T/C (second compound 3.16 µM, first compound 0.000316 µM) was 88.4%. It also gave a viability, T/C (second compound 3.16 µM, first compound 0.001 µM) of 97.3%, a viability, T/C (second compound 3.16 µM, first compound 0.00316 µM) of 93.9% and a viability, T/C (second compound 3.16 µM, first compound 0.01 µM) of 90.8%. It also gave a viability, T/C [12] of 87.4%, a viability, T/C [13] of 91.8% and a viability, T/C (second compound 10 µM, first compound 0.000316 µM) of 80.1%. For the same molecule, the viability, T/C (second compound 10 µM, first compound 0.001 µM) was 78.5%, the viability, T/C (second compound 10 µM, first compound 0.00316 µM) was 82.5% and the viability, T/C (second compound 10 µM, first compound 0.01 µM) was 81.6%. The viability, T/C [14] was 76.2% and the viability, T/C [15] was 77%.

In the case of O=C(C=Cc1cccc(S(=O)(=O)Nc2ccccc2)c1)NO, the viability, T/C (compound 0.0316 µM) is reported as 84% and 110% and 92.6%, the viability, T/C (compound 0.1 µM) is reported as 84.6% and 109% and 91.1% and the viability, T/C (compound 0.316 µM) is reported as 88.4% and 108% and 90%. The viability, T/C (compound 1 µM) was 69% and 106% and 70.5%, the viability, T/C (compound 3.16 µM) was 29.5% and 61% and 34.7% and the viability, T/C (compound 10 µM) was 0.96% and 4.09% and 0.82%. For the same molecule, the IC50 (curve of compound) was 1770 nM and 3950 nM and 1950 nM.

With CC1COCCN1c1cc(C2(S(C)(=N)=O)CC2)nc(-c2ccnc3[nH]ccc23)n1 (configuration not stated) + Cc1cncc(-c2nc(NCCc3c[nH]c4ccccc34)c3ncn(C(C)C)c3n2)c1 the IC50 [1] was 6690 nM, the IC50 [2] was 6720 nM and the IC50 [3] was 6270 nM. For the same molecule, the IC50 [4] was 1650 nM, the IC50 [5] was < 31.6 nM and the viability, T/C [6] was 96.7%. The viability, T/C [7] was 88.9%, the viability, T/C [16] was 83.1% and the viability, T/C [17] was 98.6%. For the same molecule, the viability, T/C [18] was 114%, the viability, T/C [19] was 25.1% and the viability, T/C [8] was 84.1%. For the same molecule, the viability, T/C [9] was 81.6%, the viability, T/C [20] was 79.7% and the viability, T/C [21] was 98.3%. The viability, T/C [22] was 110%, the viability, T/C [23] was 28.4% and the viability, T/C [10] was 80.4%. It also gave a viability, T/C [11] of 81.8%, a viability, T/C [24] of 66.9% and a viability, T/C [25] of 79.1%. The viability, T/C [26] was 92%, the viability, T/C [27] was 29.5% and the viability, T/C [12] was 69%. The viability, T/C [13] was 70.7%, the viability, T/C [28] was 74.2% and the viability, T/C [29] was 48.4%. The viability, T/C [30] was 44.6%, the viability, T/C [31] was 17.9% and the viability, T/C [14] was 23.8%. It also gave a viability, T/C [15] of 27.1%, a viability, T/C [32] of 12.5% and a viability, T/C [33] of 9.69%. It also gave a viability, T/C [34] of 8.26% and a viability, T/C [35] of 5.32%.

With O=C(C=Cc1cccc(S(=O)(=O)Nc2ccccc2)c1)NO + Cc1cncc(-c2nc(NCCc3c[nH]c4ccccc34)c3ncn(C(C)C)c3n2)c1 the IC50 [1] was 1480 nM, the IC50 [2] was 1390 nM and the IC50 [3] was 1140 nM. The IC50 [4] was 494 nM, the IC50 [5] was < 31.6 nM and the viability, T/C [6] was 81.7%. It also gave a viability, T/C [7] of 86.4%, a viability, T/C [16] of 85.2% and a viability, T/C [17] of 62.5%. It also gave a viability, T/C [18] of 23.9%, a viability, T/C [19] of 0.91% and a viability, T/C [8] of 84.8%. For the same molecule, the viability, T/C [9] was 82.9%, the viability, T/C [20] was 81.5% and the viability, T/C [21] was 59.9%. It also gave a viability, T/C [22] of 23.5%, a viability, T/C [23] of 0.69% and a viability, T/C [10] of 82.6%. For the same molecule, the viability, T/C [11] was 84.4%, the viability, T/C [24] was 72% and the viability, T/C [25] was 53.3%. For the same molecule, the viability, T/C [26] was 23.9%, the viability, T/C [27] was 0.75% and the viability, T/C [12] was 73.5%. For the same molecule, the viability, T/C [13] was 82.4%, the viability, T/C [28] was 66% and the viability, T/C [29] was 23.5%. It also gave a viability, T/C [30] of 12.2%, a viability, T/C [31] of 0.58% and a viability, T/C [14] of 29.9%. It also gave a viability, T/C [15] of 36.2%, a viability, T/C [32] of 8.93% and a viability, T/C [33] of 3.43%. The viability, T/C [34] was 1.25% and the viability, T/C [35] was 0.31%.
